System: 873145-292-R-J1-PDC complex spheroid viability
Assay: Anticancer human tumor 873145-292-R-J1-PDC patient-derived renal clear cell carcinoma cell line growth inhibition [POLQ]
Conditions: for IC50: curve of first compound; for viability, T/C: stronger effect = lower value; active = viability on the fitted dose curve at most 10% of control; inactive = the rest
How it was run: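 Three-cell-type spheroids modelling solid tumor plus stroma served as the readout system; POL inhibitors were tested individually and in combination, concentration ranges set by clinical Cmax where known.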

[1] = second compound 0.0316 µM, first compound 0.0316 µM
[2] = second compound 0.0316 µM, first compound 0.1 µM
[3] = second compound 0.0316 µM, first compound 0.316 µM
[4] = second compound 0.0316 µM, first compound 1 µM
[5] = second compound 0.1 µM, first compound 0.0316 µM
[6] = second compound 0.1 µM, first compound 0.1 µM
[7] = second compound 0.1 µM, first compound 0.316 µM
[8] = second compound 0.1 µM, first compound 1 µM
[9] = second compound 0.316 µM, first compound 0.0316 µM
[10] = second compound 0.316 µM, first compound 0.1 µM
[11] = second compound 0.316 µM, first compound 0.316 µM
[12] = second compound 0.316 µM, first compound 1 µM
[13] = second compound 1 µM, first compound 0.0316 µM
[14] = second compound 1 µM, first compound 0.1 µM
[15] = second compound 1 µM, first compound 0.316 µM
[16] = second compound 1 µM, first compound 1 µM
[17] = second compound 3.16 µM, first compound 0.0316 µM
[18] = second compound 3.16 µM, first compound 0.1 µM
[19] = second compound 3.16 µM, first compound 0.316 µM
[20] = second compound 3.16 µM, first compound 1 µM
[21] = second compound 10 µM, first compound 0.0316 µM
[22] = second compound 10 µM, first compound 0.1 µM
[23] = second compound 10 µM, first compound 0.316 µM
[24] = second compound 10 µM, first compound 1 µM
[25] = second compound 0.0316 µM, first compound 3.16 µM
[26] = second compound 0.0316 µM, first compound 10 µM
[27] = second compound 0.1 µM, first compound 3.16 µM
[28] = second compound 0.1 µM, first compound 10 µM
[29] = second compound 0.316 µM, first compound 3.16 µM
[30] = second compound 0.316 µM, first compound 10 µM
[31] = second compound 1 µM, first compound 3.16 µM
[32] = second compound 1 µM, first compound 10 µM
[33] = second compound 3.16 µM, first compound 3.16 µM
[34] = second compound 3.16 µM, first compound 10 µM
[35] = second compound 10 µM, first compound 3.16 µM
[36] = second compound 10 µM, first compound 10 µM
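Also: spheroids exposed to compounds for 7 days before viability readout.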
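For viability, T/C in this document: luminescence signal used as surrogate for viable cell content; 100% = DMSO vehicle control viability.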

C=CCn1c(=O)c2cnc(Nc3ccc(N4CCN(C)CC4)cc3)nc2n1-c1cccc(C(C)(C)O)n1 + Cc1cccc(N(C)C(=O)C2C(O)CCN2c2nc(C)cc(C(F)(F)F)c2C#N)c1
> 1 µM: IC50 (second compound 0.0316 µM) | IC50 (second compound 0.1 µM) | IC50 (second compound 0.316 µM) | IC50 (second compound 1 µM) | IC50 (second compound 3.16 µM) | IC50 (second compound 10 µM)
inactive: viability, T/C (second compound 0.0316 µM, first compound 0.00316 µM) 93.1% | viability, T/C (second compound 0.0316 µM, first compound 0.01 µM) 104% | viability, T/C [1] 102% | viability, T/C [2] 92% | viability, T/C [3] 83.3% | viability, T/C [4] 77.8% | viability, T/C (second compound 0.1 µM, first compound 0.00316 µM) 101% | viability, T/C (second compound 0.1 µM, first compound 0.01 µM) 97.3% | viability, T/C [5] 96% | viability, T/C [6] 87.1% | viability, T/C [7] 88.3% | viability, T/C [8] 76.7% | viability, T/C (second compound 0.316 µM, first compound 0.00316 µM) 101% | viability, T/C (second compound 0.316 µM, first compound 0.01 µM) 110% | viability, T/C [9] 82.8% | viability, T/C [10] 94.6% | viability, T/C [11] 81.4% | viability, T/C [12] 74.9% | viability, T/C (second compound 1 µM, first compound 0.00316 µM) 89.8% | viability, T/C (second compound 1 µM, first compound 0.01 µM) 94.4% | viability, T/C [13] 101% | viability, T/C [14] 85.8% | viability, T/C [15] 87.5% | viability, T/C [16] 75.5% | viability, T/C (second compound 3.16 µM, first compound 0.00316 µM) 97.7% | viability, T/C (second compound 3.16 µM, first compound 0.01 µM) 120% | viability, T/C [17] 112% | viability, T/C [18] 91.3% | viability, T/C [19] 86.9% | viability, T/C [20] 81.7% | viability, T/C (second compound 10 µM, first compound 0.00316 µM) 93.2% | viability, T/C (second compound 10 µM, first compound 0.01 µM) 97.2% | viability, T/C [21] 102% | viability, T/C [22] 85.1% | viability, T/C [23] 81.4% | viability, T/C [24] 75.3%

CCc1cc2c(N3CCc4c(cc(Cn5ccnc5)cc4-c4cn(C)nc4C(F)(F)F)C3=O)ccnc2c(OC)n1 + COC1C(OC(N)=O)C(O)C(Oc2ccc3c(O)c(NC(=O)c4ccc(O)c(CC=C(C)C)c4)c(=O)oc3c2C)OC1(C)C
inactive: viability, T/C [1] 97.1% | viability, T/C [2] 96.5% | viability, T/C [3] 98.2% | viability, T/C [4] 97.9% | viability, T/C [25] 86.8% | viability, T/C [26] 79.6% | viability, T/C [5] 106% | viability, T/C [6] 101% | viability, T/C [7] 87.7% | viability, T/C [8] 81.5% | viability, T/C [27] 82% | viability, T/C [28] 85% | viability, T/C [9] 107% | viability, T/C [10] 90.1% | viability, T/C [11] 86.4% | viability, T/C [12] 98.7% | viability, T/C [29] 96.6% | viability, T/C [30] 83.2% | viability, T/C [13] 94.1% | viability, T/C [14] 92.4% | viability, T/C [15] 86.7% | viability, T/C [16] 104% | viability, T/C [31] 84.3% | viability, T/C [32] 74.4% | viability, T/C [17] 103% | viability, T/C [18] 98.7% | viability, T/C [19] 96.5% | viability, T/C [20] 91.8% | viability, T/C [33] 82.4% | viability, T/C [34] 91.4% | viability, T/C [21] 88.4% | viability, T/C [22] 97.5% | viability, T/C [23] 87% | viability, T/C [24] 86.2% | viability, T/C [35] 85.1% | viability, T/C [36] 78.2%
> 10 µM: IC50 (second compound 0.0316 µM) | IC50 (second compound 0.1 µM) | IC50 (second compound 0.316 µM) | IC50 (second compound 1 µM) | IC50 (second compound 3.16 µM) | IC50 (second compound 10 µM)

CNCc1ccc(-c2[nH]c3cc(F)cc4c3c2CCNC4=O)cc1 + Nc1ccc(C#CCN(C(=O)Cc2ncc(C(F)(F)F)cc2C(F)(F)F)c2ccc(F)cc2)nn1
> 10 µM: IC50 (second compound 0.0316 µM) | IC50 (second compound 0.1 µM) | IC50 (second compound 0.316 µM) | IC50 (second compound 1 µM) | IC50 (second compound 3.16 µM) | IC50 (second compound 10 µM)
inactive: viability, T/C [1] 99% | viability, T/C [2] 92.8% | viability, T/C [3] 89.1% | viability, T/C [4] 87.7% | viability, T/C [25] 95.5% | viability, T/C [26] 103% | viability, T/C [5] 107% | viability, T/C [6] 105% | viability, T/C [7] 83.5% | viability, T/C [8] 88.9% | viability, T/C [27] 88.3% | viability, T/C [28] 92.8% | viability, T/C [9] 97.3% | viability, T/C [10] 95.8% | viability, T/C [11] 88.6% | viability, T/C [12] 92.4% | viability, T/C [29] 91.6% | viability, T/C [30] 89.2% | viability, T/C [13] 102% | viability, T/C [14] 92.9% | viability, T/C [15] 102% | viability, T/C [16] 94.7% | viability, T/C [31] 103% | viability, T/C [32] 90.4% | viability, T/C [17] 100% | viability, T/C [18] 104% | viability, T/C [19] 108% | viability, T/C [20] 95.4% | viability, T/C [33] 97.5% | viability, T/C [34] 100% | viability, T/C [21] 109% | viability, T/C [22] 104% | viability, T/C [23] 103% | viability, T/C [24] 100% | viability, T/C [35] 99.4% | viability, T/C [36] 105%
